Assay results as given in patent publication US5599839A, “Antiviral composition” (The United States of America as represented by the …, priority 1995, dated 1997).
Where two headings read alike, the source gives them in different places.

Columns and labels:
[1] = system: CEM-SS cells; format: cell-based, human
Description: (§1) Cancer Inst. […] Cancer Inst. 81:1254-1258, (1989)] but with several modifications.
(§2) Philadelphia: Lippincott, 1988, pp. 305-317; Weislow et al.: J. Nat. Cancer Inst. […] Cancer Inst. 81:1254-1258, (1989)].

[2] = system: HIV-1 (RF variant) in CEM-SS cells; experiment: microbe, parasite or virus in culture; settings: Human immunodeficiency virus 1, CEM-SS, 144 h, read-out: Concentration at which syncytium formation (infectious virions) is strikingly inhibited (as low as)
Protocol: (§3) The XTT-tetrazolium anti-HIV assay was performed on crude extracts, chromatographic fractions and pure compounds as previously described [Weislow et al.: J. Nat. Cancer Inst. 81:577-586, (1989) and Gustafson et al.: J. Nat. Cancer Inst. 81:1254-1258, (1989)] but with several modifications. The human T-lymphoblastic cell line CEM-SS [Nara et al.: AIDS Res. Hum. […] Concentrated pellets of CEM-SS cells were incubated with the free virus for 1 hour at 37° C. The cells were then diluted and inoculated into round-bottomed 96-well microtiter plates (Corning) at a density of 5000 cells/well. Test compounds and the appropriate controls were then added to the wells, and the plates were incubated for 6 days. At the end of the incubation period cell growth parameters and HIV-1 activities were determined.
(§4) Aliquots of supernatant fluid from the test wells of the tetrazolium assay were removed prior to the time of XTT addition for quantitation of residual infectious virus using the syncytium assay described by Nara et al. [Nara et al.: AIDS Res. Hum. Retroviruses 3:283:302, (1987)].

[3] = system: HIV-1 p24; experiment: microbe, parasite or virus in culture; settings: Human immunodeficiency virus 1, 144 h, read-out: Concentration at which p24 viral antigen production is strikingly inhibited (as low as)
Protocol: as §3, §4

[4] = in vitro; settings: human, cem-ss cells
Protocol: (§5) Trypan blue dye exclusion was employed for secondary evaluation of drug toxicity and antiviral protection over time. A 50 μl aliquot of cells was removed from each test well and mixed with 100 μl of 0.4% trypan blue. The percentage of viable cells was determined microscopically by direct hemocytometer counts.

[5] = system: CEM-SS cells; experiment: in vitro; settings: HIV-1-infected, prostratin-treated (FIG. 4)
Protocol: as §5

[6] = system: CEM-SS cells; format: binding, human; settings: for Ki: read-out: Ki, inhibition of [3H]PDBu binding to CEM cells
Protocol: (§6) Incubation was for 30 min at 37° C., after which the cells were chilled, an aliquot removed to determine total counts, and bound counts determined by filtration.
Binding affinities of phorbol esters in cells are typically lower than those obtained with reconstituted protein kinase C [Blumberg et al.: in Mechanism of Tumor Promotion, Vol. 3. Tumor Promotion and Cocarcinogenesis in vitro, (Slaga T. J., ed.) Boca Raton, Fla.: CRC Press, 1984, pp. 143-184], presumably reflecting the role of cellular calcium and phospholipid composition on binding [Konig et al.: J. Cell. Biochem. 7:255-265, (1985)]. […] The usual binding protocol were cells omits serum, because of reportedly variable effects of serum on binding [Blumberg et al.: in Mechanism of Tumor Promotion, Vol. 3. Tumor Promotion and Cocarcinogenesis in vitro, (Slaga T. J., ed.) Boca Raton, Fla.: CRC Press, 1984, pp. 143-184].

[7] = system: C3H10T1/2 cells; experiment: Inhibition of 125I-epidermal growth factor binding in C3H10T1/2 cells; format: cell-based
Description: (§7) Well-characterized biological responses to the phorbol esters include inhibition of binding of epidermal growth factor and release of arachidonic acid metabolites [Dell'Aquila et al.: Cancer Res. 48:3702-3708, (1988)].

[8] = system: C3H10T1/2 cells; experiment: Release of [3H]arachidonic acid metabolites in C3H10T1/2 cells; format: cell-based; settings: Mus musculus, C3H 10T1/2, read-out: Half-maximally effective concentration, release of arachidonic acid metabolites
Description: as §7

[9] = cited from earlier work
[10] = system: HIV-1 (RF variant) in CEM-SS cells; experiment: XTT-tetrazolium anti-HIV assay (HIV-1-infected CEM-SS cells); format: cell-based; settings: 50 nM
Description: as §1, §2

[11] = molecular target: protein kinase C; experiment: [3H]PDBu binding to partially purified protein kinase C; settings: read-out: Ki, competition of [3H]PDBu binding to protein kinase C; for comparison; mean±range, 2 experiments
Protocol: as §6

With `CC(=O)O[C@@]12C[C@@H](C)[C@@]3(O)[C@@H](C=C(CO)C[C@]4(O)C(=O)C(C)=C[C@@H]34)[C@@H]1C2(C)C` [prostratin] the “Growth-inhibitory (cytostatic) effect on uninfected control cultures” value ([1]; 1.0-200 μg/ml, uninfected CEM-SS, 6 days) was “marked growth-inhibitory, or cytostatic, effect”, the minimal effective concentration [2] was no more than 1 µg/mL and the minimal effective concentration [3] was no more than 1 µg/mL. The viability [4] was greater than 90%, the “Cell viability, infected cultures” value [5] was “greater than 90%” and the Ki ([6]; 10% fetal calf serum, one experiment) was 190 nM. The Ki ([6]; without serum, 30 min at 37° C, mean±range, 2 experiments) was 210 ± 30 nM, the “Inhibition of binding of epidermal growth factor” value [7] was “induces both of these responses” and the EC50 [8] was 1100 nM. For the same molecule, the Tumor promoting activity ([9]; general statement, no test described) was “substantially lacks tumor promoting activity” and the Tumor promoting activity ([9]; reported, Zayed et al. 1977) was “not a tumor promoter”.
In the case of `CCCCCCCCCCCCCC(=O)O[C@@H]1[C@@H](C)[C@@]2(O)[C@@H](C=C(CO)C[C@]3(O)C(=O)C(C)=C[C@@H]23)[C@@H]2C(C)(C)[C@]12OC(C)=O` [PMA, phorbol 12-myristate 13-acetate, reference compound], the “Protection against HIV-1” value [10] is reported as “protective against HIV-1” and the Cytostatic effect ([1]; 50 nM) is reported as “cytostatic”.
In the case of “[^3 H]phorbol 12,13-dibutyrate [[^3 H]PDBu, reference compound]”, the “Bmax in CEM-SS cells” value ([6]; mean±range, 2 experiments) is reported as 1.2±0.1 pmol/mg protein and the Kd ([6]; mean±range, 2 experiments, read-out: Binding affinity in CEM-SS cells) is reported as 4.9 ± 0.8 nM.
Molecule `CC1=C[C@H]2[C@@]3(O)[C@H](C)C[C@]4(OC(=O)C(C)C)[C@H]([C@@H]3C=C(CO)C[C@]2(O)C1=O)C4(C)C` [12-deoxyphorbol 13-isobutyrate] has a Ki [11] of 2.1 ± 0.1 nM.
`CCCC(=O)O[C@@H]1[C@@H](C)[C@@]2(O)[C@@H](C=C(CO)C[C@]3(O)C(=O)C(C)=C[C@@H]23)[C@@H]2C(C)(C)[C@]12OC(=O)CCC` [PDBu, phorbol 12,13-dibutyrate, reference compound] showed an EC50 [8] of 24 nM.
